Test results taken from ChEMBL document CHEMBL3046503, “Insulinotropic activity of chromonyl-2,4-thiazolidinediones” (2009).

Assays:
Format in all cases: functional
[1] = test system: INS1; test: Insulinotropic activity in Rattus norvegicus (rat) INS-1 cells assessed as increase of glucose-induced insulin release at 0.01 mg/ml after 90 min by radioimmunoassay relative to 5.6 mM of glucose
[2] = test system: INS1; test: Insulinotropic activity in Rattus norvegicus (rat) INS-1 cells assessed as increase of glucose-induced insulin release at 0.001 mg/ml after 90 min by radioimmunoassay relative to 5.6 mM of glucose
[3] = test system: INS1; test: Insulinotropic activity in Rattus norvegicus (rat) INS-1 cells assessed as increase of glucose-induced insulin release at 3 mM after 90 min by radioimmunoassay relative to 5.6 mM of glucose

`CCOC(=O)CN1C(=O)S/C(=C/c2coc3ccccc3c2=O)C1=O` gave an Activity [1] of 65.53% and an Activity [2] of 83.15%.

Work on `O=C1NC(=O)/C(=C\c2coc3ccc([N+](=O)[O-])cc3c2=O)S1` yielded an Activity [1] of 69.2% and an Activity [2] of 81.44%.

`Cc1ccc2occ(/C=C3/SC(=O)NC3=O)c(=O)c2c1` gave an Activity [1] of 75.61% and an Activity [2] of 90.53%.

For `Cc1cc(C)c2occ(/C=C3/SC(=O)NC3=O)c(=O)c2c1`, the Activity [1] was 84.64% and the Activity [2] was 85.89%.

`CC(C)c1ccc2occ(/C=C3/SC(=O)NC3=O)c(=O)c2c1` showed an Activity [1] of 81.55% and an Activity [2] of 89.46%.

Work on `O=C(O)CN1C(=O)S/C(=C/c2coc3ccc([N+](=O)[O-])cc3c2=O)C1=O` yielded an Activity [1] of 111% and an Activity [2] of 107.8%.

With `Cc1ccc2occ(/C=C3/SC(=O)N(CC(=O)O)C3=O)c(=O)c2c1` the Activity [1] was 120.7% and the Activity [2] was 102.2%.

Molecule `CCOC(=O)CN1C(=O)S/C(=C/c2coc3c(C)cc(C)cc3c2=O)C1=O` has an Activity [1] of 154.4% and an Activity [2] of 138%.

In the case of `CC(C)c1ccc2occ(/C=C3/SC(=O)N(CC(=O)O)C3=O)c(=O)c2c1`, the Activity [1] is reported as 144.3% and the Activity [2] is reported as 125.6%.

With `O=C1NC(=O)/C(=C\c2coc3ccccc3c2=O)S1` the Activity [1] was 63.57% and the Activity [2] was 83.98%.

`CCOC(=O)CN1C(=O)S/C(=C/c2coc3ccc(C(C)C)cc3c2=O)C1=O` was tested, and the Activity [1] was 180.5% and the Activity [2] was 138.5%.

For `CCOC(=O)CN1C(=O)S/C(=C/c2coc3ccc([N+](=O)[O-])cc3c2=O)C1=O`, the Activity [1] was 74.1% and the Activity [2] was 98.8%.

Molecule `O=C(O)CN1C(=O)S/C(=C/c2coc3ccccc3c2=O)C1=O` has an Activity [1] of 121% and an Activity [2] of 117.2%.

With `CCOC(=O)CN1C(=O)S/C(=C/c2coc3ccc(C)cc3c2=O)C1=O` the Activity [1] was 177.7% and the Activity [2] was 153.1%.

With `Cc1cc(C)c2occ(/C=C3/SC(=O)N(CC(=O)O)C3=O)c(=O)c2c1` the Activity [1] was 131.6% and the Activity [2] was 102.8%.

`OC[C@H]1OC(O)[C@H](O)[C@@H](O)[C@@H]1O` (some centres not stated) [DEXTROSE] was tested, and the Activity [3] was 73%.

`COc1ccc(Cl)cc1C(=O)NCCc1ccc(S(=O)(=O)NC(=O)NC2CCCCC2)cc1` [GLYBURIDE] gave an Activity [2] of 179.6%.
